Where a name gives a salt, the structure may show the parent alone.
Assays:
[1] = target: T1, human β3 adrenergic receptor (Homo sapiens, UniProt P13945); experiment: cAMP accumulation (SPA) in CHO cells transfected with human β3 adrenergic receptor; assay type: cell-based; settings: for EC50: CHO cells expressing human β3-AR, cAMP, 30 min incubation, 10^−9 M to 10^−5 M, read-out: beta-3 EC50; for beta-3 (IA) maximal response relative to isoproterenol: IA = % activity compound / % activity isoproterenol at 10^−5 M, CHO human β3 cells
T1 construct: Full length β3 AR clones (402 amino acids) containing the last 6 amino acids of hβ3— AR are prepared; expressed in transfected cells; host or cells: CHO cells
Experimental: (§1) The ability of compounds of this invention to treat or inhibit disorders related to insulin resistance or hyperglycemia was established with representative compounds of this invention in the following standard pharmacological test procedures, which measured the binding selectivity to the β1, β2, and β3 adrenergic receptors. Binding to the receptors was measured in Chinese Hamster ovary (CHO) cells that were transfected with adrenergic receptors. The following briefly summarizes the procedures used and results obtained.
Cloning of Human β3-AR Genomic DNA: cDNA was constructed by ligating four polymerase chain reaction (PCR) products using the following primers: an ATG-Narl fragment, sense primer 5′-[…]3′ and anti-sense primer 5′[…]3′; a Narl-Accl fragment, 5′[…]3′ as sense and 5′[…]3′ as anti-sense primer; an Accli-Styl fragment, sense primer 5′[…]3′ and anti-sense primer 5′[…]3′ and a Styl-TAG fragment, with sense primer 5′[…]3′ and anti-sense primer 5′[…]3′. The corresponding primer sequences are described in Mantzoros, C. S., et.al., Diabetes 45: 909-914 (1996). The four fragments are ligated into a pUC 18 plasmid (Gibco-BRL) and sequenced. Full length β3 AR clones (402 amino acids) containing the last 6 amino acids of hβ3— AR are prepared with the β3-βARpcDNA3from ATTC.
(§2) Binding Procedure: Clones expressing receptor levels of 70 to 110 fmoles/mg protein were used in the test procedures. CHO cells were grown in 24-well tissue culture plates in Dulbecco's Modified Eagle Media with 10% fetal bovine serum, MEM non-essential amino acids, Penicillin-Streptompycin and Geneticin. On the day of test procedure, growth medium was replaced with preincubation media (Dulbecco's Modified Eagle Media and incubated for 30 minutes at 37° C. Preincubation medium was replaced with 0.2 ml treatment medium containing DMEM media containing 250 μM IBMX (isobutyl-1-methylxantine) plus 1 mM ascorbic acid with test compound dissolved in DMSO. Test compounds were tested over a concentration range of 10^−9 M to 10^−5 M for β3 cells and 10^−8 to 10^−4 M for β1 and β2 transfected cells. Isoproterenol (10^−5 M) was used as an internal standard for comparison of activity. Cells were incubated at 37° C. on a rocker for 30 min with the β3 cells and 15 min for β1 and β2 cells. Incubation was stopped with the addition of 0.2N HCl and neutralized with 2.5N NaOH. The plates, containing the cells and neutralized media, were stored at −20 degrees celsius until ready to test for cAMP using the SPA test kit (Amersham).
(§3) Data Analysis and Results: Data collected from the SPA test procedure were analyzed as per cent of the maximal isoproterenol response at 10^−5 M. Activity curves were plotted using the SAS statistical and graphics software. EC50 values were generated for each compound and the maximal response (IA) developed for each compound is compared to the maximal response of isoproternol at 10^−5 M from the following formula:
(§4) IA=% activity compound/% activity isoproterenol

[2] = target: T2, human β2-adrenergic receptor (Homo sapiens, UniProt P07550); experiment: cAMP accumulation (SPA) in CHO cells transfected with human β2 adrenergic receptor; assay type: cell-based; settings: for beta-2 (IA) maximal response relative to isoproterenol: IA = % activity compound / % activity isoproterenol at 10^−5 M, CHO human β2 cells; for EC50: CHO cells transfected with human β2-AR, cAMP, 15 min incubation, 10^−8 to 10^−4 M, read-out: beta-2 EC50
T2 construct: expressed in transfected cells; host or cells: CHO cells
Experimental: as §1
(§5) Transfection of CHO cells with β1 and β2 adrenergic receptors: CHO cells were transfected with human β1- or β2-adrenergic receptors as described in Tate, K. M., Eur. J. Biochem., 196:357-361 (1991).
as §2, §3, §4

[3] = target: T3, human β1-adrenergic receptor (Homo sapiens, UniProt P08588); experiment: cAMP accumulation (SPA) in CHO cells transfected with human β1 adrenergic receptor; assay type: cell-based; settings: for EC50: CHO cells transfected with human β1-AR, cAMP, 15 min incubation, 10^−8 to 10^−4 M, read-out: beta-1 EC50; for beta-1 (IA) maximal response relative to isoproterenol: IA = % activity compound / % activity isoproterenol at 10^−5 M, CHO human β1 cells
T3 construct: expressed in transfected cells; host or cells: CHO cells
Experimental: as §1, §5, §2, §3, §4

T3 sequence (P08588 whole entry): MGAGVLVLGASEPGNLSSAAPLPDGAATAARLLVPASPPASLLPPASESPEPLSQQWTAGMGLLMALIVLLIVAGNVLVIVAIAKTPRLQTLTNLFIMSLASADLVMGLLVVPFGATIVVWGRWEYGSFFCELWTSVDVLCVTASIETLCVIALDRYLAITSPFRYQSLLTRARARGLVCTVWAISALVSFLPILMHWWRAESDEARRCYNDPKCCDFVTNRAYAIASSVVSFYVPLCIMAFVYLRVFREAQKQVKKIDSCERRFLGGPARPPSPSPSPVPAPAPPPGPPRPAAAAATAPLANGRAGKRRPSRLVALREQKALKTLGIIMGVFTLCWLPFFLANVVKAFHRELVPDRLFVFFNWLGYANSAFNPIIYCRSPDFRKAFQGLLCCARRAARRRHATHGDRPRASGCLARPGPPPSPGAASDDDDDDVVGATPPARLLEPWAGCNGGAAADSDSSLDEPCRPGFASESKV
T2 sequence (P07550 whole entry): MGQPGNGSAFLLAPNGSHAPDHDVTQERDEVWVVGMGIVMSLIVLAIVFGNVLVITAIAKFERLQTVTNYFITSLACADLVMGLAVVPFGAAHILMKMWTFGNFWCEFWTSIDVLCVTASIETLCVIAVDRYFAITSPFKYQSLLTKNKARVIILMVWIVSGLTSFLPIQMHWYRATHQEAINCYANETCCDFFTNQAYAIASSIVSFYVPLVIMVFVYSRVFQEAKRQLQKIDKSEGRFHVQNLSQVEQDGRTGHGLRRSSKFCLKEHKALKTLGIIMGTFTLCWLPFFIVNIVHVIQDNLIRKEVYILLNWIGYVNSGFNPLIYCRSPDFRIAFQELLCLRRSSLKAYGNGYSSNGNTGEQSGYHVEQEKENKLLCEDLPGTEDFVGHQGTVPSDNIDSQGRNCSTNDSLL
T1 sequence (P13945 whole entry): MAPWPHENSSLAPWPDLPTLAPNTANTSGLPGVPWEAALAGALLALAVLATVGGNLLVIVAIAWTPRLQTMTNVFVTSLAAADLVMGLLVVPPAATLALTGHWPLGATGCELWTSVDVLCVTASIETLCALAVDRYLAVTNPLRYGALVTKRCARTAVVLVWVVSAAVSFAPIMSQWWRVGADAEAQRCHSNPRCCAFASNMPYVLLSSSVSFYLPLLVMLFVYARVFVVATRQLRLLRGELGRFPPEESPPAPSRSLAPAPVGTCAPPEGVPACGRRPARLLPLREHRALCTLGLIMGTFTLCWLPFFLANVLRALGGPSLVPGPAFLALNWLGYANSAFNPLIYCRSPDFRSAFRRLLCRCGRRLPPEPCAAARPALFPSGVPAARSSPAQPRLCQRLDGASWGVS

EC50 [1] [nM] | beta-3 (IA) maximal response relative to isoproterenol [1] | melting point | beta-2 (IA) maximal response relative to isoproterenol [2] | EC50 [3] [nM] | beta-1 (IA) maximal response relative to isoproterenol [3] | EC50 [2] [nM] | SMILES
3 | (0.86) | 74 to 83 °C | – | – | – | – | CC(C)OC(=O)C1CCCN1S(=O)(=O)c1ccc(N2CCC(NCC(O)COc3cccc4[nH]c(=O)[nH]c34)CC2)cc1 (stereo not shown) [Example 16, 1-(4-{4-[2-Hydroxy-3-(2-oxo-2,3-dihydro-1H-benzoimidazol-4-yloxy)-propylamino]-piperidin-1-yl}-benzenesulfonyl)-pyrrolidine-2-carboxylic Acid Isopropyl Ester]
– | – | 170 to 172 °C | – | – | – | – | CS(=O)(=O)Nc1cc([C@@H](O)CNC2CCN(c3ccc(S(=O)(=O)NCC(=O)O)cc3)CC2)ccc1O (as salt: salt) [Example 53, 2-{[(4-{4-[((2R)-2-hydroxy-2-{4-hydroxy-3-[(methylsulfonyl)amino]phenyl}ethyl)amino]-1-piperidinyl}phenyl)sulfonyl]amino}acetic Acid]
– | – | 60 °C | – | – | – | – | COC(=O)N(CC(=O)O)S(=O)(=O)c1ccc(N2CCC(NC[C@H](O)c3ccc(O)c(NS(C)(=O)=O)c3)CC2)cc1 (as salt: salt) [Example 60, [[(4-{4-[((2R)-2-Hydroxy-2-{4-hydroxy-3-[(methylsulfonyl)amino]phenyl}-ethyl)amino]piperidin-1-yl}phenyl)sulfonyl](methoxycarbonyl)amino]acetic Acid]
– | – | 163 to 166 °C | – | – | – | – | CS(=O)(=O)Nc1cc([C@@H](O)CNC2CCN(c3ccc(S(=O)(=O)N(CC(=O)O)CC(=O)O)cc3)CC2)ccc1O (as salt: salt) [Example 55, 2-((Carboxymethyl)[(4-{4-[((2R)-2-hydroxy-2-{4-hydroxy-3-[(methylsulfonyl)amino]phenyl)ethyl)amino]-1-piperidinyl}phenyl)sulfonyl]amino}acetic Acid]
– | – | 113 to 121 °C | – | – | – | – | COc1ccc(NS(=O)(=O)c2ccc(N3CCC(NC[C@H](O)COc4ccc(OCc5ccccc5)cc4)CC3)cc2)cc1OC [Example 9, 4-{4-[(2S)-3-(4-Benzyloxy-phenoxy)-2-hydroxy-propylamino]-piperidin-1-yl}-N-(3,4-dimethoxy-phenyl)-benzenesulfonamide]
18 | (1) | – | (0.15) | 25000 | (0.66) | – | CN(CC(=O)O)S(=O)(=O)c1ccc(N2CCC(NC[C@H](O)c3ccc(O)c(NS(C)(=O)=O)c3)CC2)cc1 [Example 33, [(4-{4-[(2R)-2-Hydroxy-2-(4-hydroxy-3-methanesulfonylamino-phenyl)-ethylamino]-piperidin-1-yl}-benzenesulfonyl)-methyl-amino]-acetic Acid]
32 | (1.1) | – | (0.32) | 1100 | (0.5) | 380 | CCOC(=O)[C@@H](NS(=O)(=O)c1ccc(N2CCC(NC[C@H](O)c3ccc(O)c(NS(C)(=O)=O)c3)CC2)cc1)C(C)C [Example 38, Ethyl (2S)-2-{[(4-{4-[((2R)-2-hydroxy-2-{4-hydroxy-3-[(methylsulfonyl)amino]-phenyl}ethyl)amino]-1-piperidinyl}phenyl)sulfonyl]amino}-3-methylbutanoate]
– | – | 131 °C (dec.) | – | – | – | – | CS(=O)(=O)Nc1cc([C@@H](O)CNC2CCN(c3ccc(S(=O)(=O)N4CCN(CC(=O)O)CC4)cc3)CC2)ccc1O (as salt: sodium) [Example 65]
– | – | 80 to 82 °C | – | – | – | – | CS(=O)(=O)Nc1cc([C@@H](O)CNC2CCN(c3ccc(S(=O)(=O)N(CC(=O)O)Cc4cc(F)ccc4F)cc3)CC2)ccc1O (as salt: salt) [Example 63, 2-{(2,5-Difluorobenzyl)[(4-{4-[((2R)-2-hydroxy-2-{4-hydroxy-3-[(methylsulfonyl)-amino]phenyl}ethyl)amino]-1-piperidinyl}phenyl)sulfonyl]amino}acetic acid]
7 | (1.2) | – | (0.33) | 20000 | (0.96) | 12000 | CS(=O)(=O)Nc1cc([C@@H](O)CNC2CCN(c3ccc(S(=O)(=O)N(CC(=O)O)CC4CC4)cc3)CC2)ccc1O [Example 31, [Cyclopropylmethyl-(4-{4-[(2R)-2-hydroxy-2-(4-hydroxy-3-methanesulfonylamino-phenyl)-ethylamino]-piperidin-1-yl}-benzenesulfonyl)-amino]-acetic Acid]
4 | (1) | – | (0.57) | 6700 | (0.48) | 10000 | CCOC(=O)CN(CC(C)C)S(=O)(=O)c1ccc(N2CCC(NC[C@H](O)c3ccc(O)c(NS(C)(=O)=O)c3)CC2)cc1 [Example 32, [(4-{4-[(2R)-2-Hydroxy-2-(4-hydroxy-3-methanesulfonylamino-phenyl)-ethylamino]-piperidin-1-yl}-benzenesulfonyl)-isobutyl-amino]-acetic Acid Ethyl Ester]
21 | (0.78) | – | (0) | – | (0.17) | – | O=c1[nH]c2cccc(OCC(O)CNC3CCN(c4ccc(S(=O)(=O)NCc5ccccc5)cc4)CC3)c2[nH]1 (stereo not shown) [Example 4, N-Benzyl-4-{4-[2-hydroxy-3-(2-oxo-2,3-dihydro-1H-benzoimidazol-4-yloxy)-propylamino]-piperidin-1-yl}-benzenesulfonamide]
6 | (1.1) | – | (0.14) | 10000 | (0.49) | – | CC(C)CN(CC(=O)O)S(=O)(=O)c1ccc(N2CCC(NC[C@H](O)c3ccc(O)c(NS(C)(=O)=O)c3)CC2)cc1 [Example 34, [(4-{4-[(2R)-2-Hydroxy-2-(4-hydroxy-3-methanesulfonylamino-phenyl)-ethylamino]-piperidin-1-yl}-benzenesulfonyl)-isobutyl-amino]-acetic Acid]
94 | (1.1) | – | (0.03) | – | (0.16) | – | CCCCN(Cc1ccccc1)S(=O)(=O)c1ccc(N2CCC(NC[C@H](O)COc3cccc4[nH]c(=O)[nH]c34)CC2)cc1 [Example 2, N-Benzyl-N-butyl-4-{4-[(2S)-2-hydroxy-3-(2-oxo-2,3-dihydro-1H-benzoimidazol-4-yloxy)-propylamino]-piperidin-1-yl}-benzenesulfonamide]
17 | (0.92) | – | (0) | – | (0.09) | – | COc1ccc(N(Cc2ccccc2)S(=O)(=O)c2ccc(N3CCC(NCC(O)COc4cccc5[nH]c(=O)[nH]c45)CC3)cc2)cc1OC (stereo not shown) [Example 1, N-Benzyl-N-(3,4-dimethoxy-phenyl)-4-{4-[2-hydroxy-3-(2-oxo-2,3-dihydro-1H-benzoimidazol-4-yloxy)-propylamino]-piperidin-1-yl}-benzenesulfonamide]
